Results taken from patent publication US9233979B2, “Compounds that are ERK inhibitors” (Merck Sharp & Dohme Corp., priority 2012, dated 2016).

Target: phosphorylated active hERK2 enzyme (Homo sapiens (Human), UniProt P28482)
Experiment: Active Human ERK2 (hERK2) Activity Assay (IMAP-FP)
Format: biochemical
Conditions: Table 6, 0.5 nM hERK2, 30 μM ATP, 10 point titration, read-out: AERK2 IC50
Method in brief: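 IMAP fluorescence-polarization kinase assay: 0.5 nM activated hERK2 with 900 nM unlabeled plus 80 nM labeled peptide and 30 μM ATP, reacted 60 min. Quenched with IMAP beads in binding buffer with 24 mM NaCl; FP read after 60 min equilibration.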

phosphorylated active hERK2 enzyme, sequence (P28482 whole entry): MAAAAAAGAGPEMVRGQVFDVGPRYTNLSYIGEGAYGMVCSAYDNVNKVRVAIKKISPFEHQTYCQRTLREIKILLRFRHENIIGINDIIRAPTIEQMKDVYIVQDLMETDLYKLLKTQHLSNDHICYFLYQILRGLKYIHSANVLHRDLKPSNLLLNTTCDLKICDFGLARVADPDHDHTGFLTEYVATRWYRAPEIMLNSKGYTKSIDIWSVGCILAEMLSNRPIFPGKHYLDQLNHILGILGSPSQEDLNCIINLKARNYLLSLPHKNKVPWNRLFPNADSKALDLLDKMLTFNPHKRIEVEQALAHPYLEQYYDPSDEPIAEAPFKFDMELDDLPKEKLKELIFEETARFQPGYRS

Row | Compound | IC50 [nM]
1 | CNc1n[nH]c2cc(NC(=O)N[C@H](C)c3ccc(Cl)cc3)ncc12 [Example 343, 1-[(1R)-1-(4-chlorophenyl)ethyl]-3-[3-(methyl-amino)-1H-pyrazolo[4,3-c]-pyridin-6-yl]urea] | 7.8
2 | CC[C@@H](NC(=O)Nc1cc2[nH]nc(N3CCCC3)c2cn1)c1ccccn1 [Example 344, 1-[(1R)-1-pyridin-2-ylpropyl]-3-(3-pyrrolidin-1-yl-1H-pyrazolo[4,3-c]-pyridin-6-yl)urea] | 1020
3 | CC[C@H](NC(=O)Nc1cc2[nH]nc(N3CCCC3)c2cn1)c1ccccn1 [Example 345, 1-[(1S)-1-pyridin-2-ylpropyl]-3-(3-pyrrolidin-1-yl-1H-pyrazolo[4,3-c]-pyridin-6-yl)urea] | 13.8
4 | C[C@@H](NC(=O)Nc1cc2[nH]nc(NCC(=O)N(C)C)c2cn1)c1ccccc1 [Example 347, N,N-dimethyl-N~2~-[6-({[(1R)-1-phenylethyl]-carbamoyl}-amino)-1H-pyrazolo[4,3-c]-pyridin-3-yl]-glycinamide] | 18.3
5 | C[C@@H](NC(=O)Nc1cc2[nH]nc(NCCC(=O)N(C)C)c2cn1)c1ccccc1 [Example 348, N,N-dimethyl-N~3~-[6-({[(1R)-1-phenylethyl]-carbamoyl}amino)-1H-pyrazolo[4,3-c]pyridin-3-yl]-beta-alaninamide] | 3.1
6 | CC(=O)N(C)c1n[nH]c2cc(NC(=O)N[C@H](C)c3ccccc3)ncc12 [Example 349, N-methyl-N-[6-({[(1R)-1-phenyl-ethyl]carbamoyl}-amino)-1H-pyrazolo[4,3-c]-pyridin-3-yl]-acetamide] | 484
7 | CCN(C(C)=O)c1n[nH]c2cc(NC(=O)N[C@H](C)c3ccccc3)ncc12 [Example 350, N-ethyl-N-[6-({[(1R)-1-phenyl-ethyl]carbamoyl}-amino)-1H-pyrazolo[4,3-c]-pyridin-3-yl]-acetamide] | 33.3
8 | C[C@@H](NC(=O)Nc1cc2[nH]nc(NC(C)(C)C)c2cn1)c1ccccc1 [Example 351, 1-[3-(tert-butylamino)-1H-pyrazolo[4,3-c]-pyridin-6-yl]-3-[(1R)-1-phenylethyl]urea] | 88
9 | C[C@@H](NC(=O)Nc1cc2[nH]nc(N[C@H](C)C(F)F)c2cn1)c1ccccc1 [Example 355, 1-(3-{[(1R)-2,2-difluoro-1-methyl-ethyl]amino}-1H-pyrazolo[4,3-c]-pyridin-6-yl)-3-[(1R)-1-phenylethyl]urea] | 2.9
10 | C[C@@H](NC(=O)Nc1cc2[nH]nc(NC3(C)CCC3)c2cn1)c1ccccc1 [Example 356, 1-{3-[(1-methylcyclo-butyl)amino]-1H-pyrazolo[4,3-c]-pyridin-6-yl}-3-[(1R)-1-phenylethyl]urea] | 54.1
11 | COCC(C)(C)Nc1n[nH]c2cc(NC(=O)N[C@H](C)c3ccccc3)ncc12 [Example 361, 1-{3-[(2-methoxy-1,1-dimethylethyl)-amino]-1H-pyrazolo[4,3-c]-pyridin-6-yl}-3-[(1R)-1-phenylethyl]urea] | 385
12 | Nc1n[nH]c2c(Cl)c(NC(=O)N[C@H](COC(F)F)c3ccccc3)ncc12 [Example 363, 1-(3-amino-7-chloro-1H-pyrazolo[4,3-c]pyridin-6-yl)-3-[(1S)-2-(difluoromethoxy)-1-phenylethyl]urea] | 52.2
13 | COC[C@@H](NC(=O)Nc1cc2[nH]nc(Nc3cnn(C)c3)c2cn1)c1ccccc1 [Example 370, 1-[(1S)-2-methoxy-1-phenylethyl]-3-{3-[(1-methyl-1H-pyrazol-4-yl)-amino]-1H-pyrazolo[4,3-c]-pyridin-6-yl}urea] | 19.7
14 | COC[C@@H](NC(=O)Nc1cc2[nH]nc(Nc3cnn(C)c3)c2cn1)c1ccc(F)cc1 [Example 372, 1-[(1S)-1-(4-fluorophenyl)-2-methoxyethyl]-3-{3-[(1-methyl-1H-pyrazol-4-yl)-amino]-1H-pyrazolo[4,3-c]-pyridin-6-yl}urea] | 14.7
15 | COCCNc1n[nH]c2cc(NC(=O)N[C@H](C)c3ccc(F)cc3)ncc12 [Example 374, 1-[(1R)-1-(4-fluorophenyl)ethyl]-3-{3-[(2-methoxy-ethyl)amino]-1H-pyrazolo[4,3-c]-pyridin-6-yl}urea] | 2.8
16 | C[C@@H](NC(=O)Nc1cc2[nH]nc(N3CC4C5CCC(C)(O5)C4C3)c2cn1)c1ccc(F)cc1 (stereo partly drawn) [Example 376, 1-[(1R)-1-(4-fluorophenyl)ethyl]-3-[3-(4-methyl-octahydro-2H-4,7-epoxyisoindol-2-yl)-1H-pyrazolo[4,3-c]-pyridin-6-yl]urea] | 13.8
17 | C[C@@H](NC(=O)Nc1cc2[nH]nc(Nc3ccccc3)c2cn1)c1ccccc1 [Example 379, 1-[3-(phenyl-amino)-1H-pyrazolo[4,3-c]-pyridin-6-yl]-3-[(1R)-1-phenylethyl]urea] | 127
18 | C[C@@H](NC(=O)Nc1cc2[nH]nc(Nc3ccc(C#N)nc3)c2cn1)c1ccccc1 [Example 381, 1-{3-[(6-cyanopyridin-3-yl)amino]-1H-pyrazolo[4,3-c]-pyridin-6-yl}-3-[(1R)-1-phenylethyl]urea] | 367

Compounds with a lower IC50, results first:

Row | IC50 [nM] | Compound
19 | 2.6 | C[C@@H](NC(=O)Nc1cc2[nH]nc(NC3CC[S+]([O-])C3)c2cn1)c1ccccc1 (stereo partly drawn) [Example 360, 1-{3-[(1-oxidotetrahydrothio-phen-3-yl)amino]-1H-pyrazolo[4,3-c]pyridin-6-yl}-3-[(1R)-1-phenylethyl]urea]
20 | 2.5 | Nc1n[nH]c2cc(NC(=O)N[C@H](CO)c3ccccc3)ncc12 [Example 375, 1-(3-amino-1H-pyrazolo[4,3-c]-pyridin-6-yl)-3-[(1S)-2-hydroxy-1-phenylethyl]urea]
21 | 2.3 | CC12CCC(O1)C1CN(c3n[nH]c4cc(NC(=O)N[C@@H](c5ccc(F)cc5)C(C)(C)O)ncc34)CC12 (stereo partly drawn) [Example 377, 1-[(1S)-1-(4-fluorophenyl)-2-hydroxy-2-methyl-propyl]-3-[3-(4-methyloctahydro-2H-4,7-epoxyisoindo1-2-yl)-1H-pyrazolo[4,3-c]-pyridin-6-yl]urea]
22 | 2.2 | C[C@H](Nc1n[nH]c2cc(NC(=O)N[C@H](C)c3ccccc3)ncc12)C(F)F [Example 354, 1-(3-{[(1S)-2,2-difluoro-1-methyl-ethyl]amino}-1H-pyrazolo[4,3-c]-pyridin-6-yl)-3-[(1R)-1-phenylethyl]urea]
23 | 1.4 | CSC[C@@H](NC(=O)Nc1cc2[nH]nc(N)c2cn1)c1ccccc1 [Example 357, 1-(3-amino-1H-pyrazolo[4,3-c]-pyridin-6-yl)-3-[(1S)-2-(methylsulfanyl)-1-phenylethyl]urea]
24 | 1.3 | Nc1n[nH]c2c(F)c(NC(=O)N[C@H](COC(F)F)c3ccccc3)ncc12 [Example 362, 1-(3-amino-7-fluoro-1H-pyrazolo[4,3-c]-pyridin-6-yl)-3-[(1S)-2-(difluoromethoxy)-1-phenylethyl]urea]
25 | 1.2 | Nc1n[nH]c2cc(NC(=O)N[C@H](COC(F)F)c3ccccc3)ncc12 [Example 352, 1-(3-amino-1H-pyrazolo[4,3-c]-pyridin-6-yl)-3-[(1S)-2-(difluoromethoxy)-1-phenylethyl]urea]
26 | 1.2 | C[C@@H](NC(=O)Nc1cc2[nH]nc(NC3CCSC3)c2cn1)c1ccccc1 (stereo partly drawn) [Example 359, 1-[(1R)-1-phenylethyl]-3-[3-(tetrahydrothiophen-3-ylamino)-1H-pyrazolo[4,3-c]-pyridin-6-yl]urea]
27 | 1.1 | C[C@@H](NC(=O)Nc1cc2[nH]nc3c2c(n1)COC(=O)N3)c1ccccc1 [Example 368, 1-(8-oxo-2,6,8,9-tetrahydro-7-oxa-1,2,5,9-tetraazabenzo[cd]-azulen-4-yl)-3-[(1R)-1-phenylethyl]urea]
28 | 0.9 | C[C@@H](O)[C@@H](NC(=O)Nc1cc2[nH]nc(N3CCC(F)(F)CC3)c2cn1)c1ccc(F)cc1 [Example 365, 1-[3-(4,4-difluoropiperidin-1-yl)-1H-pyrazolo[4,3-c]pyridin-6-yl]-3-[(1S,2R)-1-(4-fluorophenyl)-2-hydroxypropyl]urea]
29 | 0.8 | CCNc1n[nH]c2cc(NC(=O)N[C@H](CSC)c3ccccc3)ncc12 [Example 358, 1-[3-(ethylamino)-1H-pyrazolo[4,3-c]pyridin-6-yl]-3-[(1S)-2-(methylsulfanyl)-1-phenylethyl]urea]
30 | 0.7 | COCCNc1n[nH]c2cc(NC(=O)N[C@H](COC)c3ccccc3)ncc12 [Example 371, 1-{3-[(2-methoxy-ethyl)amino]-1H-pyrazolo[4,3-c]-pyridin-6-yl}-3-[(1S)-2-methoxy-1-phenylethyl]urea]
31 | 0.6 | CCNc1n[nH]c2cc(NC(=O)N[C@H](COC(F)F)c3ccccc3)ncc12 [Example 353, 1-[(1S)-2-(difluoromethoxy)-1-phenylethyl]-3-[3-(ethylamino)-1H-pyrazolo[4,3-c]pyridin-6-yl]urea]
32 | 0.6 | CC(C)(O)[C@@H](NC(=O)Nc1cc2[nH]nc(N3CC(F)(F)C3)c2cn1)c1ccccc1 [Example 367, 1-[3-(3,3-difluoro-azetidin-1-yl)-1H-pyrazolo[4,3-c]-pyridin-6-yl]-3-[(1S)-2-hydroxy-2-methyl-1-phenylpropyl]urea]
33 | 0.4 | COC[C@@H](NC(=O)Nc1cc2[nH]nc(NC3CCC3)c2cn1)c1ccccc1 [Example 346, 1-[3-(cyclobutyl-amino)-1H-pyrazolo[4,3-c]-pyridin-6-yl]-3-[(1S)-2-methoxy-1-phenylethyl]urea]
34 | 0.4 | CC(C)(O)[C@@H](NC(=O)Nc1cc2[nH]nc(N3CCC(F)(F)CC3)c2cn1)c1ccccc1 [Example 366, 1-[3-(4,4-difluoropiperidin-1-yl)-1H-pyrazolo[4,3-c]pyridin-6-yl]-3-[(1S)-2-hydroxy-2-methyl-1-phenylpropyl]urea]
35 | 0.3 | CC(=O)Nc1n[nH]c2cc(NC(=O)N[C@H](COC(F)F)c3ccccc3)ncc12 [Example 364, N-[6-({[(1S)-2-(difluoromethoxy)-1-phenylethyl]-carbamoyl}amino)-1H-pyrazolo[4,3-c]pyridin-3-yl]-acetamide]
